From ChEMBL document CHEMBL1142441, “Stereochemical studies on the novel monoamine oxidase B substrates (1R,6S)- and (1S,6R)-3-methyl-6-phenyl-3-aza-bicyclo[4.1.0]heptane” (Bioorg Med Chem, 2008)

Molecular target: T1, Amine oxidase [flavin-containing] B (Homo sapiens, UniProt P27338)
T1 sequence (P27338 whole entry): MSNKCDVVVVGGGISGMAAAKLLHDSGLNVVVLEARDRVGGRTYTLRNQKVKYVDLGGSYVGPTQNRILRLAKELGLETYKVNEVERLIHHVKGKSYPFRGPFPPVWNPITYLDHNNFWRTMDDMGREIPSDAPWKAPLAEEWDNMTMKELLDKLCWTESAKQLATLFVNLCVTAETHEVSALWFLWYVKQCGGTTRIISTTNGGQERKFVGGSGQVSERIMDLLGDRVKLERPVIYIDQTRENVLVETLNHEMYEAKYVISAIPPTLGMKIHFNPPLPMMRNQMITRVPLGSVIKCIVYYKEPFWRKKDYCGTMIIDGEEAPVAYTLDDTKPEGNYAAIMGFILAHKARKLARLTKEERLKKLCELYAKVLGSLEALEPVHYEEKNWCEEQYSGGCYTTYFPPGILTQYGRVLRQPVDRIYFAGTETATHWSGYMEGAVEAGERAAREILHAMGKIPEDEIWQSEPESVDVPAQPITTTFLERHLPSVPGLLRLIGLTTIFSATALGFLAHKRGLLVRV
Experiment: Activity of 50 nM human recombinant MAOB after 30 mins
Settings: 0.5 h

| SMILES | Vmax [nmol] |
| --- | --- |
| CN1CC[C@@]2(c3ccccc3)C[C@H]2C1 | 135 |
| CN1CC[C@]2(c3ccccc3)C[C@@H]2C1 | 135 |
